Patent US20260165323A1, “USE OF STROBILURIN TYPE COMPOUNDS FOR COMBATING PHYTOPATHOGENIC FUNGI CONTAINING AN AMINO ACID SUBSTITUTION F129L IN THE MITOCHONDRIAL CYTOCHROME B PROTEIN CONFERRING RESISTANCE TO QO […]” (priority 2022, published 2026)

Legend:
Format in all cases: in vivo
Puccinia recondita [1] = assay: Use Example 4: preventative control of brown rust on wheat (PUCCRT P7); conditions: inoculated seven days after spraying, % diseased leaf area
Experimental: (§1) The compound was dissolved in a mixture of acetone and/or dimethylsulfoxide and the wetting agent/emulsifier Wettol, which is based on ethoxylated alkylphenoles, in a ratio (volume) solvent-emulsifier of 99 to 1 to give a total volume of 5 ml. Subsequently, water was added to total volume of 100 ml. This stock solution was then diluted with the described solvent-emulsifier-water mixture to the final concentration given in the tables below.
Use Example 4. Preventative Control of Brown Rust on Wheat Caused by Puccinia recondita (PUCCRT P7)
The first two developed leaves of potted wheat seedling were sprayed to run-off with previously described spray solution, containing the concentration of active ingredient or their mixture as described below. Seven days later the plants were dusted with spores of Puccinia recondita. To ensure the success of the artificial inoculation, the plants were transferred to a humid chamber without light and a relative humidity of 95 to 99% and 20 to 24° C. for 24 h. Then the trial plants were cultivated for 9 to 11 days in a greenhouse chamber at 20 to 24° C. and a relative humidity between 65 and 70%. The extent of fungal attack on the leaves was visually assessed as % diseased leaf area, the disease level of untreated controls was usually between 80 and 100%.

Puccinia recondita [2] = assay: Use Example 3: curative control of brown rust on wheat (PUCCRT K4); conditions: % diseased leaf area
Experimental: as §1
Use Example 3. Curative Control of Brown Rust on Wheat Caused by Puccinia recondita (PUCCRT K4)
The first two developed leaves of potted wheat seedling were dusted with spores of Puccinia recondita. To ensure the success the artificial inoculation, the plants were transferred to a humid chamber without light and a relative humidity of 95 to 99% and 20 to 24° C. for 24 h. The next 3 days the plants were cultivated in a greenhouse chamber at 20 to 24° C. and a relative humidity between 65 and 70%. Then the plants were sprayed to run-off with previously described spray solution, containing the concentration of active ingredient or their mixture as described below. The plants were allowed to air-dry. Then the trial plants were cultivated for 5 to 7 days in a greenhouse chamber at 20 to 24° C. and a relative humidity between 65 and 70%. The extent of fungal attack on the leaves was visually assessed as % diseased leaf area, the disease level of untreated controls was usually between 80 and 100%.

[3] = tested on: Phakopsora pachyrhizi containing the amino acid substitution F129L in the mitochondrial cytochrome b protein; assay: Use Example 2: protective control of soybean rust on soybeans (PHAKPA P6); conditions: inoculated six days after spraying, % diseased leaf area
Experimental: as §1
Use Example 2. Protective Control of Soybean Rust on Soybeans Caused by Phakopsora Pachyrhizi (PHAKPA P6)
(§2) Leaves of potted soybean seedlings were sprayed to run-off with the previously described spray solution, containing the concentration of active ingredient as described below. The plants were allowed to air-dry. The trial plants were cultivated for six days in a greenhouse chamber at 23-27° C. and a relative humidity between 60 and 80%. Then the plants were inoculated with spores of Phakopsora pachyrhizi. The strain used contains the amino acid substitution F129L in the mitochondrial cytochrome b protein conferring resistance to Qo inhibitors. To ensure the success the artificial inoculation, the plants were transferred to a humid chamber with a relative humidity of about 95% and 23 to 27° C. for 24 hr. The trial plants were cultivated for up to 14 days in a greenhouse chamber at 23 to 27° C. and a relative humidity between 60 and 80%. The extent of fungal attack on the leaves was visually assessed as % diseased leaf area, the disease level of untreated controls was usually higher than 85%.

[4] = tested on: Phakopsora pachyrhizi containing the amino acid substitution F129L in the mitochondrial cytochrome b protein; assay: Use Example 1: protective control of soybean rust on soybeans (PHAKPA P2); conditions: inoculated 2 days after spraying, % diseased leaf area
Experimental: as §1
Use Example 1. Protective Control of Soybean Rust on Soybeans Caused by Phakopsora pachyrhizi (PHAKPA P2)
as §2, with “active ingredient or their mixture as described” for “active ingredient as described”, “cultivated for 2 days in” for “cultivated for six days in”, “95% and 20 to 24°” for “95% and 23 to 27°”, “20 to 24° C. for” for “23 to 27° C. for”

Compound	% PUCCRT Disease level P7 at 4 ppm (Puccinia recondita [1])	% PUCCRT Disease level P7 at 16 ppm (Puccinia recondita [1])	% PUCCRT Disease level K4 at 4 ppm (Puccinia recondita [2])	% PUCCRT Disease level K4 at 16 ppm (Puccinia recondita [2])	% PHAKPA (F129L) Disease level P6 at 4 ppm [3]	% PHAKPA (F129L) Disease level P6 at 16 ppm [3]	% PHAKPA (F129L) Disease level P2 at 4 ppm [4]	% PHAKPA (F129L) Disease level P2 at 16 ppm [4]
CNC(=O)/C(=N/OC)c1cccc(Cl)c1CO/N=C(\COC)c1cc(Cl)ccc1F [compound 107]	41%	7%	80%	9%	19%	3%	29%	3%
CNC(=O)/C(=N/OC)c1cccc(Cl)c1CO/N=C(\COC)c1cc(F)cc(F)c1 [compound 86]	19%	4%	52%	4%	10%	0%	17%	0%
CO/C=C(/C(=O)OC)c1cccc(Cl)c1CO/N=C(\COC)c1cccc(Cl)c1 [compound 39]	3%	0%	9%	1%	10%	1%	2%	0%
CO/C=C(/C(=O)OC)c1cccc(Cl)c1CO/N=C(\COC)c1ccc(Cl)c(F)c1 [compound 110]	41%	3%	70%	4%	15%	0%	1%	0%
CCOC/C(=N\OCc1c(Cl)cccc1/C(=N\OC)C(=O)NC)c1ccc(Cl)cc1 [compound 46]	60%	10%	67%	38%	68%	16%	80%	20%
CCOC/C(=N\OCc1c(Cl)cccc1/C(=C\OC)C(=O)OC)c1ccc(Cl)cc1 [compound 45]	82%	27%	80%	68%	70%	15%	60%	8%
CO/C=C(/C(=O)OC)c1cccc(Cl)c1CO/N=C(\COC)c1cccc(Cl)c1F [compound 76]	35%	3%	41%	2%	0%	0%	10%	1%
CCOC/C(=N\OCc1c(Cl)cccc1/C(=C\OC)C(=O)OC)c1cccc(F)c1 [compound 27]	40%	7%	57%	12%	17%	1%	5%	0%
CO/C=C(/C(=O)OC)c1cccc(F)c1CO/N=C(\COC)c1c(F)cc(F)cc1F [compound 125]	–	–	68%	7%	–	–	–	–
CO/C=C(/C(=O)OC)c1cccc(Cl)c1CO/N=C(\COC)c1cccc(C)c1 [compound 128]	–	–	20%	1%	4%	1%	4%	0%
COC/C(=N\OCc1c(Cl)cccc1/C(=N\OC)C(=O)OC)c1ccc(F)c(F)c1F [compound 98]	50%	12%	–	–	72%	31%	72%	15%
COC/C(=N\OCc1c(Cl)cccc1/C(=N\OC)C(=O)OC)c1ccc(F)c(F)c1 [compound 90]	32%	10%	–	–	42%	13%	11%	0%
CCOC/C(=N\OCc1c(Cl)cccc1/C(=N\OC)C(=O)OC)c1cccc(F)c1 [compound 26]	62%	21%	82%	82%	–	–	–	–
CNC(=O)/C(=N/OC)c1cccc(Cl)c1CO/N=C(\COC)c1c(F)ccc(F)c1F [compound 112]	43%	6%	–	–	21%	0%	8%	0%
CCOC/C(=N\OCc1c(Cl)cccc1/C(=N\OC)C(=O)OC)c1ccc(F)cc1 [compound 24]	68%	48%	83%	82%	–	–	–	–
COC/C(=N\OCc1c(Cl)cccc1/C(=N\OC)C(=O)OC)c1ccc(F)cc1F [compound 78]	42%	10%	–	–	45%	2%	9%	0%
CCOC/C(=N\OCc1c(Cl)cccc1/C(=N\OC)C(=O)NC)c1ccccc1Cl [compound 51]	75%	53%	72%	68%	–	–	–	–
COC/C(=N\OCc1c(Cl)cccc1/C(=N\OC)C(=O)OC)c1c(F)cc(Cl)cc1F [compound 89]	36%	25%	–	–	45%	13%	53%	17%
CNC(=O)/C(=N/OC)c1cccc(Cl)c1CO/N=C(\COC)c1cccc(C)c1 [compound 127]	–	–	58%	1%	18%	4%	21%	0%
